“Also recorded” adds a separate entry of the source.
Key:
[1] = test system: mice with spinal nerve ligation (SNL); experiment: Neuropathic pain model (spinal nerve ligation, SNL), von Frey paw withdrawal
Protocol: (§1) Animal models of pain. To model postoperative pain in mice, plantar incision was performed under isoflurane anesthesia. Specifically, a 4-8 mm incision was made through the skin, fascia, and muscle of the plantar side of one hind paw, longitudinally starting from the proximal edge of the heel. The skin was apposed with sutures (Fine Science Tools, Foster City, CA). The suture was removed at the end of postoperative day 2. To model neuropathic pain in mice, a surgery was performed to ligate the fifth lumbar (L5) spinal nerve (spinal nerve ligation, SNL).
(§2) Behavioral testing. Mechanical pain sensitivity after plantar incision or SNL was assessed by measuring paw withdrawal behaviors in response to von Frey filament (VFF) probing. A mouse was placed in a plastic chamber on top of a mesh screen platform. The VFF of 0.98 mN was applied perpendicularly to the hind paw. […] The percent of withdrawal responses out of the ten trials was recorded.
(§3) Statistical analysis. We used a generalized linear mixed model to analyze the number of withdrawals out of 10 trials (binomial distribution) repeatedly measured at multiple time points (AR1 covariance structure) with random intercepts for subject (i.e., mouse) variances. Degrees of freedom were allowed to vary across tests by Satterthwaite approximation.

[2] = test system: mice with plantar incision; experiment: Postoperative pain model (plantar incision), von Frey paw withdrawal; settings: for effect on postoperative mechanical hypersensitivity: post-operative treatment
Protocol: as §1, §2, §3

[3] = Tissue distribution after single i.v. injection in male CD-1 mice; settings: for rank order of the exposure of the organs to the parent drug: i.v. administration
[4] = test system: naïve mice; experiment: Abuse liability, conditioned place preference (CPP) paradigm; type: in vivo, mouse; settings: 2-day conditioning
Protocol: Experimental approaches. […] Specifically, one day after measuring natural place preference, vehicle was be given in the morning, and the mouse was placed in its preferred chamber for 20 min. In the afternoon, test drugs were given, and the mouse was placed in its non-preferred chamber for 20 min. This conditioning procedure was repeated 2 times. One day after the last conditioning session, CPP for the drug-paired chamber was measured for 20 min.

[5] = test system: human hepatic microsomes; settings: pooled human liver microsomes, 50-200 μM substrate, 20 min, 37° C.
Protocol: The reaction was incubated for 20 min at 37° C. and terminated by the addition of 1.2 mL of cold acetonitrile.
Analytical method: An LC-MS/MS method for the quantification of EDDP, d3-EDDP and d6-EDDP was developed and validated. The samples were analyzed with an API 4000 triple quadrupole mass spectrometer coupled with an Agilent HPLC 1200 system (Applied Biosystems, Foster City, CA). […] Separation of EDDP, d3-EDDP and d6-EDDP was achieved by a Waters Symmetry C18 HPLC column at 45° C.

[6] = test system: Swiss mice; settings: intraperitoneally (i.p.); cited from earlier work
[7] = Plasma pharmacokinetics after single i.v. injection in male CD-1 mice; settings: parent drug in plasma, 2.0 mg/kg i.v.
[8] = 3 mg/kg i.p., once daily for 4 days

[2H]C([2H])([2H])CC(=O)C(CC(C)N(C([2H])([2H])[2H])C([2H])([2H])[2H])(c1ccccc1)c1ccccc1 (racemic) [d9-methadone]
effect on neuropathic pain (tactile allodynia) ([1]; 3 mg/kg i.p. once daily for 3 days after SNL): effectively alleviated this neuropathic pain after each injection; also recorded: effectively inhibited this neuropathic pain after each injection | development of analgesic tolerance ([1]; once daily for 3 days, 3 mg/kg i.p.): no development of the apparent analgesic tolerance | postoperative mechanical hypersensitivity vs methadone-treated mice, next day ([2]; intra-operative treatment, 3 mg/kg i.p.): no difference | postoperative mechanical hypersensitivity vs methadone-treated mice, day of surgery (2 hr, 4 hr) ([2]; intra-operative treatment, 3 mg/kg i.p. before plantar incision): lower postoperative mechanical hypersensitivity | development of analgesic tolerance ([2]; once daily for 4 days, 3 mg/kg i.p.): no development of the apparent analgesic tolerance | effect on postoperative mechanical hypersensitivity [2, 8]: alleviated hypersensitivity after each systemic injection | Cohen's d, % withdrawals before and after treatment ([2]; postoperative treatment, paired comparison): > 20 | Cohen's d between methadone and d9-methadone groups, % of withdrawals 4 hours post-incision ([2]; preliminary intra-operative treatment): 2.1 | rank order of the exposure of the organs to the parent drug [3]: lungs>kidneys≈liver>spleen>heart>brain | Kp ([3]; male, CD-1, mouse, in vivo, iv, 2 mg/kg): 0.35 ± 0.12 | conditioned place preference for the drug-paired chamber [4]: did not develop conditioned place preference; also recorded: did not develop CPP; also recorded: did not show any apparent conditioned place preference | biotransformation (N-demethylation) rate compared to the non-deuterated substrate [5]: further decreased the rate

CCC(=O)C(CC(C)N(C)C)(c1ccccc1)c1ccccc1 (racemic) [methadone, 6-(dimethylamino)-4,4-diphenylheptan-3-one]
LD50 [6]: 41 mg/kg | effect on postoperative mechanical hypersensitivity [2, 8]: unable to reduce | AUC0-8 h [7]: 414 ± 67 ng·h/mL | AUC0-∞ [7]: 436 ± 75 ng·h/mL | Tmax [7]: 0.08 ± 0^ h | Cmax ([7]; mean ± s.d.): 521 ± 55 ng/mL | rank order of the exposure of the organs to the parent drug [3]: kidneys≈lungs>spleen>liver>heart>brain | conditioned place preference for the drug-paired chamber [4]: developed CPP; also recorded: relatively weaker conditioned place preference

CCC1=[N+](C)C(C)CC1(c1ccccc1)c1ccccc1 (stereo not drawn) [EDDP, 2-ethylidine-1,5-dimethyl-3,3-diphenylpyrrolidine]
rank order of the exposure of the organs to the metabolite ([3]; i.v. administration of the parent drug): lungs>liver>kidney≈heart>spleen

C=CC[N+]1(C)CC[C@]23c4c5ccc(O)c4O[C@H]2C(=O)CC[C@@]3(O)[C@H]1C5 (stereo partly drawn) [NLXM, naloxone methiodide, reference compound]
effect of NLXM on the relief of postoperative pain by d9-methadone ([2]; NLXM 10 mg/kg i.p. 30 minutes before d9-methadone): completely blocked the effect of d9-methadone

[2H]C([2H])([2H])CC(=O)C(CC(C)N(C)C)(c1ccccc1)c1ccccc1 (stereo not drawn) [d3-methadone, reference compound]
biotransformation (N-demethylation) rate compared to the non-deuterated substrate [5]: significantly decreased the biotransformation

CN1CC[C@]23c4c5ccc(O)c4O[C@H]2[C@@H](O)C=C[C@H]3[C@H]1C5 [morphine]
conditioned place preference for the drug-paired chamber [4]: spent significantly more time in the bright chamber; also recorded: developed CPP
